According to US9000174B2, “4-phenylsulfonamidopiperidines as calcium channel blockers” (Purdue Pharma L.P., priority 2004, dated 2015):
Where a name gives a salt, the structure may show the parent alone.

Columns and labels:
[1] = target: T1, N-type calcium channel (NTCC) (Homo sapiens, UniProt Q00975); assay: FLIPR calcium mobilization (and/or electrophysiological) assay for N-type calcium channel; format: cell-based; settings: calcium mobilization and/or electrophysiological in vitro assay; differentiated IMR32 cells, 90 mM KCl, 5 μM nitrendipine
T1 construct: endogenous in cells; host or cells: differentiated IMR32 cells (ATCC)
T1 sequence (Q00975 whole entry): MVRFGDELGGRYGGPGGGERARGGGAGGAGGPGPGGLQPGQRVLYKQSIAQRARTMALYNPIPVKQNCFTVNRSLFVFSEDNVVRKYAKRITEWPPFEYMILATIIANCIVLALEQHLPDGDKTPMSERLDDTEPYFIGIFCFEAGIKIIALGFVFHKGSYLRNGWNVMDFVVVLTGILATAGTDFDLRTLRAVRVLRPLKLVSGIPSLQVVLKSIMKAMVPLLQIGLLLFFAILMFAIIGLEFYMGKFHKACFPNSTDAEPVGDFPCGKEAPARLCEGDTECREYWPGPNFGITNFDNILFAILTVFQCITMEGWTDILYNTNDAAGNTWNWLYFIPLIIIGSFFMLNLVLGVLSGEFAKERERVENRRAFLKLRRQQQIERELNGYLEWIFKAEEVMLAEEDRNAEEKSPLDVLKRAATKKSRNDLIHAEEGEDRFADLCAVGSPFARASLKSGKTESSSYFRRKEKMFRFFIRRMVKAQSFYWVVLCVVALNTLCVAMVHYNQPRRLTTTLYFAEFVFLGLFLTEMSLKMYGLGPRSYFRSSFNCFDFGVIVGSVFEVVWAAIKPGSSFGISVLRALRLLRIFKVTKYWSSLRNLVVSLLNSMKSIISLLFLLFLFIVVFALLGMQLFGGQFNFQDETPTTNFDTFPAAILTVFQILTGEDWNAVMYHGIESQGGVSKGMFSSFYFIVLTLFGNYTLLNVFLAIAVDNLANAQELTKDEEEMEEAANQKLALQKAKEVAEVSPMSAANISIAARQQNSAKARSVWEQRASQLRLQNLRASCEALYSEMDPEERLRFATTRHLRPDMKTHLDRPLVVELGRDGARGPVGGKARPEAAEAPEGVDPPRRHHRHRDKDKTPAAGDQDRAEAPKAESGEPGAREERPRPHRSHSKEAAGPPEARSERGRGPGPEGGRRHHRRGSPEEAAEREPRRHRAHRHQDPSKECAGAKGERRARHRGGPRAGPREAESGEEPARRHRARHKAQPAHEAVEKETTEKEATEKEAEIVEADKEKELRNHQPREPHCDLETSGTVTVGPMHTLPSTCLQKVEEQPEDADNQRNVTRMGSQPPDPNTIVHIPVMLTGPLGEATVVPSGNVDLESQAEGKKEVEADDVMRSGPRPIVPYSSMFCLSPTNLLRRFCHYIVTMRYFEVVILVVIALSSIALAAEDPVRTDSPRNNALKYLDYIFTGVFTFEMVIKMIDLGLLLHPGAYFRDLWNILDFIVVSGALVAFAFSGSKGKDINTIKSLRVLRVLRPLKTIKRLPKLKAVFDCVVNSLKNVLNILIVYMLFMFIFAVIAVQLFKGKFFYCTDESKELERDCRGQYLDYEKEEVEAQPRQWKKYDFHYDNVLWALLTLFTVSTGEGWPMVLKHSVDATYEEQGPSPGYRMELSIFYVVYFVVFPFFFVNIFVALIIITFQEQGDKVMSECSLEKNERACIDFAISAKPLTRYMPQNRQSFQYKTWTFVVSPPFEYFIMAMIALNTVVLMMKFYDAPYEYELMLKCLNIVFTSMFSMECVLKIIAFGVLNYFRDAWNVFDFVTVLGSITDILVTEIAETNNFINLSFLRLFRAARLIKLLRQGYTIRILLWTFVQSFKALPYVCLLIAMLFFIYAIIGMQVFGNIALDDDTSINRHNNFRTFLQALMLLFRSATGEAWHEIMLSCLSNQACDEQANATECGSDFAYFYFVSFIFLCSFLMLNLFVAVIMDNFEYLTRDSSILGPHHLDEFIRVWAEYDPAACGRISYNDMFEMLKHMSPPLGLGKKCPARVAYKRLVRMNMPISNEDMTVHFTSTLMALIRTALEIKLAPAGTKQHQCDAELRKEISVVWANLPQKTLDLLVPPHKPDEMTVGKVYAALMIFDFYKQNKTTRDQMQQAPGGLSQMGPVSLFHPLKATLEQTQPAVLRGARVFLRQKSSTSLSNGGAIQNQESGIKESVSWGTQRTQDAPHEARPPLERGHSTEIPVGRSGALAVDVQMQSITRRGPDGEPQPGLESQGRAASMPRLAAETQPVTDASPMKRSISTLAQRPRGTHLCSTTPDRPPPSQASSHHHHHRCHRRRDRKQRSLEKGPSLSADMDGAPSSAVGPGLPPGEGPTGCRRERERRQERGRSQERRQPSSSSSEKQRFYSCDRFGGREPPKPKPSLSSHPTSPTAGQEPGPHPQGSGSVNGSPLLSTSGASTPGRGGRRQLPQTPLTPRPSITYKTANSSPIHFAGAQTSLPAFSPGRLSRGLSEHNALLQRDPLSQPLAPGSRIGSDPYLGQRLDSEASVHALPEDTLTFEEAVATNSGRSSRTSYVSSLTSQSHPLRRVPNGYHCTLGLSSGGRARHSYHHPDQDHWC
T1 sequence (P54284 whole entry partner): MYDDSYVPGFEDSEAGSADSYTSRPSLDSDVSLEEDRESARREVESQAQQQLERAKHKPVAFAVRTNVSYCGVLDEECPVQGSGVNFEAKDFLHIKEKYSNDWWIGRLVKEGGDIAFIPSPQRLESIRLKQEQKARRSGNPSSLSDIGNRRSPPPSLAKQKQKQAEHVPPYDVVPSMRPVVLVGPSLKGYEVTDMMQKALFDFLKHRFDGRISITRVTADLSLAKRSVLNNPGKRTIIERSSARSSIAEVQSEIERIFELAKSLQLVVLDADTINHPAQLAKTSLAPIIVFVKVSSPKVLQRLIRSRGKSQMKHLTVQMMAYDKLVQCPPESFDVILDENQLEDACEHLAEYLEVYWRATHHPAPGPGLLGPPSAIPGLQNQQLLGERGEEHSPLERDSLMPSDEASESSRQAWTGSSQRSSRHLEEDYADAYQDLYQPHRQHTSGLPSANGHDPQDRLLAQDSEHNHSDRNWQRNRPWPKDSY
T1 sequence (P54289 25-956 partner limits assumed): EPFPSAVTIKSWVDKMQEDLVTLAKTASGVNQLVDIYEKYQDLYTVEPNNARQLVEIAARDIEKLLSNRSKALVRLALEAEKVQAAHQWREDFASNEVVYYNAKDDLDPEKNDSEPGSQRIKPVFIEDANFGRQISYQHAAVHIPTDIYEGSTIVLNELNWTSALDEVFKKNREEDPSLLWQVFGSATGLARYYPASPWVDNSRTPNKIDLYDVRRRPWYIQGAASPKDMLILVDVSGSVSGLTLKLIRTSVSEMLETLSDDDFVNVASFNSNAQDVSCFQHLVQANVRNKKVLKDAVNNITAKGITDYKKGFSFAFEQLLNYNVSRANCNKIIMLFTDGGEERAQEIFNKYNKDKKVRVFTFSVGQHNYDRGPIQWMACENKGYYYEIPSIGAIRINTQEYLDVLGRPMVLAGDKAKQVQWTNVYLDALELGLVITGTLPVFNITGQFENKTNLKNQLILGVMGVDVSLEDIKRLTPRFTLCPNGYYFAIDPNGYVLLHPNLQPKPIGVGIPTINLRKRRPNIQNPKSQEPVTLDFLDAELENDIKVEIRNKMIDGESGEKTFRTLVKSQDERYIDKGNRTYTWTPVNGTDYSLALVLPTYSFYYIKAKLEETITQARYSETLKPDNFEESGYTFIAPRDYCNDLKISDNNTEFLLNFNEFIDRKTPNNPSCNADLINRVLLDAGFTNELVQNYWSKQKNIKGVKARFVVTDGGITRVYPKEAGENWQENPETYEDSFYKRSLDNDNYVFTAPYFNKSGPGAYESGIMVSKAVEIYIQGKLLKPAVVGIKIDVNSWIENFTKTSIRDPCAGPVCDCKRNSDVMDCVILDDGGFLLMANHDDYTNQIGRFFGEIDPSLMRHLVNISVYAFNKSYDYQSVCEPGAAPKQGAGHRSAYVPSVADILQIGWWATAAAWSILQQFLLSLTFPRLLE
T1 sequence (P54289 957-1103 partner limits assumed): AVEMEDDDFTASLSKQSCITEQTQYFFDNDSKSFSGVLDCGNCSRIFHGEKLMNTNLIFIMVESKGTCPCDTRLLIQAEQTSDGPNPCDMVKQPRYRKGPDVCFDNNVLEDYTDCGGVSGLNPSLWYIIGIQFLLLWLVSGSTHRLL
Procedure: Unless noted otherwise, cell culture reagents were purchased from Life Technologies of Rockville, Md. IMR32 cells (American Type Culture Collection, ATCC, Manassas, Va.) were routinely cultured in growth medium consisting of minimum essential medium containing 10% fetal bovine serum (FBS, Hyclone, Logan, Utah), 100 U/mL penicillin, 100 μg/mL streptomycin, 2 mM L-glutamine, 1 mM sodium pyruvate, and 1×MEM non-essential amino acids. 80-90% confluent flasks of cells were differentiated using the following differentiation medium: Growth medium plus 1 mM dibutyryl cyclic AMP (Sigma, St. Louis, Mo.), and 2.5 μM bromodeoxyuridine (Sigma). Cells were differentiated for 8 days by replacing differentiation medium every 2-3 days.
One day prior to performing this assay, differentiated IMR32 cells were treated with 1× CellStripper, and seeded on poly-D-lysine-coated 96-well clear-bottom black plates (Becton Dickinson, Franklin Lakes, N.J.) at 200,000 cells/well. On the day of the assay, the cell plates were washed with IMR32 buffer (127 mM NaCl, 1 mM KCl, 2 mM MgCl2, 700 μM NaH2PO4, 5 mM CaCl2, 5 mM NaHCO3, 8 mM HEPES, 10 mM glucose, pH 7.4), then pre-stimulated with KCl and loaded as follows: 0.05 mL of IMR32 buffer, 0.05 mL of each compound tested diluted in IMR32 buffer containing 20 μM nitrendipine (Sigma), and 0.1 mL KCl dissolved in IMR32 buffer, plus Fluo-4 were added (3 μM final concentration, Molecular Probes, Eugene, Oreg.). Final test compound concentrations ranged from about 846 pM to about 17 μM, final nitrendipine concentration was 5 μM, and final KCl concentration was 90 mM. After 1 hour, the cells were washed twice with 0.05 mL of each compound tested in nitrendipine-containing IMR32 buffer (no KCl or Fluo-4), and then replaced with 0.1 mL of each compound tested in nitrendipine-containing IMR32 buffer. Plates were then transferred to a Fluorimetric Imaging Plate Reader (FLIPR^96, Molecular Devices, Inc., Sunnyvale, Calif.) for assay. The FLIPR measured basal Fluo-4 fluorescence for 315 seconds (i.e., 5 minutes and 15 seconds), then added 0.1 mL KCl agonist dissolved in IMR32 buffer and measured fluorescence for another 45 seconds. Final test compound concentrations on the cells after FLIPR read ranged from about 846 pM to about 17 μM, final nitrendipine concentration was 5 μM, and final KCl concentration was 90 mM. Data were collected over the entire time course and analyzed using Excel, Graph Pad Prism (version 3.02, Graph Pad, San Diego, Calif.), or Activity Base (version 5.1, IDBS, Parsippany, N.J.) software.
N-type calcium channel expressing HEK-293 cells were created in two stages. Stage 1 was created as follows. The rat α1b, and β3 cDNA expression constructs (2.5 μg each) were co-transfected into human embryonic kidney (HEK-293) cells by Lipofectamine Plus reagent (Invitrogen), as per manufacturer's instructions. 24 hours later, cells were split in limiting dilution into multiple 96-well plates in selection media containing 20 μg/mL blasticidin and 500 μg/mL geneticin, and incubated for 3 weeks at 37° C., 5% CO2, 95% humidity. Plates containing ≦1 clone per well were cultured until wells positive for single clones were confluent. Individual clones were then arrayed into columns of a destination 96-well plate, and partly split into 6-well plates for culture maintenance. Array plates were washed once with IMR32 buffer and cells loaded for 1 hour with 0.1 mL of IMR32 buffer containing Fluo-4 (3 μM final concentration, Molecular Probes). Then they were washed twice with 0.1 mL of IMR32 buffer, and replaced with 0.1 mL IMR32 buffer. Plates were then transferred to a FLIPR^96 for assay. The FLIPR measured basal Fluo-4 fluorescence for 315 seconds, then added 0.1 mL KCl agonist dissolved in IMR32 buffer and measured fluorescence for another 45 seconds. Final KCl concentration was 90 mM. Data were collected over the entire time course and analyzed using Excel, Graph Pad Prism, or Activity Base software. […]

[2] = target: T2, L-type calcium channel (LTCC) (Rattus norvegicus, UniProt P22002); assay: FLIPR calcium mobilization (and/or electrophysiological) assay for L-type calcium channel; format: cell-based; settings: calcium mobilization and/or electrophysiological in vitro assay; differentiated A7r5 cells, 90 mM KCl
T2 construct: differentiated A7r5 cells were trypsinized, then seeded on tissue culture treated 96-well clear-bottom black plates; endogenous in cells; host or cells: differentiated A7r5 cells (ATCC)
Procedure: A7r5 (ATCC) cells were maintained and routinely cultured in A7r5 growth medium consisting of Dulbecco's Modified Eagles Medium containing 10% FBS, 100 U/mL penicillin, 100 μg/mL streptomycin, 4 mM L-glutamine, and 0.15% sodium bicarbonate. 80-90% confluent flasks of cells were differentiated using the following differentiation medium: A7r5 Growth Medium plus 1 mM dibutyryl cyclic AMP (Sigma). Cells were differentiated for 8 days by replacing differentiation medium every 2-3 days.
One day prior to performing this assay, differentiated A7r5 cells were trypsinized, then seeded on tissue culture treated 96-well clear-bottom black plates (Becton Dickinson, Franklin Lakes, N.J.) at a dilution of 1:1 from a confluent T150 cm^2 flask. On the day of the assay, the plates were washed with A7r5 wash buffer (127 mM NaCl, 2 mM MgCl2, 700 μM NaH2PO4, 5 mM CaCl2, 5 mM NaHCO3, 8 mM HEPES, 10 mM glucose, pH 7.4), then loaded with 0.1 mL of A7r5 wash buffer containing Fluo-4 (3 μM final concentration, Molecular Probes, Eugene, Oreg.). After 1 hour, the cells were washed with 0.1 mL A7r5 wash buffer and resuspended in 0.05 mL A7r5 assay buffer that was composed of A7r5 wash buffer plus 50 μM valinomycin (Sigma). Plates were then transferred to a FLIPR^96 for assay. The FLIPR measured basal Fluo-4 fluorescence for 15 seconds, then added 0.05 mL of each compound tested diluted in A7r5 assay buffer at final concentrations ranging from about 846 pM to about 17 μM. Fluo-4 fluorescence was then measured for 5 minutes. 0.1 mL KCl agonist dissolved in A7r5 assay buffer was then added to the cells to produce a final concentration of 90 mM KCl, and fluorescence was measured for another 45 seconds. Data were collected over the entire time course and analyzed using Excel, Graph Pad Prism, or Activity Base software.

SMILES | IC50 [1] | IC50 [2]
N[C@@H](C(=O)N1CCC(N(C2CC2)S(=O)(=O)c2cccc(C(F)(F)F)c2)CC1)C1CCCCC1 [(2R) N-[1-(2-Amino-2-cyclohexylethanoyl)piperidin-4-yl]-N-cyclopropyl-3-trifluoromethylbenzenesulfonamide] | 440 nM | > 20000 nM
CN[C@@H](CC(C)C)C(=O)N1CCC(N(CCO)S(=O)(=O)c2cccc(C(F)(F)F)c2)CC1 [(2S) N-(2-Hydroxyethyl)-N-[1-(4-methyl-2-methylamino-pentanoyl)piperidin-4-yl]-3-trifluoromethylbenzenesulfonamide hydrochloride] | 2230 nM | –
CN[C@@H](CC(C)C)C(=O)N1CCC(N(CCOC)S(=O)(=O)c2cccc(C(F)(F)F)c2)CC1 [(2S) N-(2-methoxyethyl)-N-[1-(4-methyl-2-methylaminopentanoyl)-piperidin-4-yl]-3-trifluoromethylbenzenesulfonamide] | 1220 nM | –
CN[C@@H](CC(C)C)C(=O)N1CCC(N(C2CCCC2)S(=O)(=O)c2cccc(C(F)(F)F)c2)CC1 [(2S) N-Cyclopentyl-N-[1-(4-methyl-2-methylamino-pentanoyl)piperidin-4-yl]-3-trifluoromethylbenzenesulfonamide fumarate] | 1560 nM | –
CN[C@@H](CC(C)C)C(=O)N1CCC(N(C2CC2)S(=O)(=O)c2cccc(OC(F)F)c2)CC1 [(2S) N-Cyclopropyl-N-[1-(4-methyl-2-methylaminopentanoyl)-piperidin-4-yl]-3-difluoromethoxybenzenesulfonamide] | 2440 nM | –
CN[C@@H](CC(C)C)C(=O)N1CCC(N(CC2CC2)S(=O)(=O)c2cccc(C(F)(F)F)c2)CC1 [(2S) N-Cyclopropylmethyl-N-[1-(4-methyl-2-methylamino-pentanoyl)piperidin-4-yl]-3-trifluoromethylbenzenesulfonamide fumarate] | 1310 nM | –
CN[C@@H](CC(C)C)C(=O)N1CCC(N(C2CCOC2)S(=O)(=O)c2cccc(C(F)(F)F)c2)CC1 (stereo partly drawn) [(2S) N-[1-(4-Methyl-2-methylaminopentanoyl)piperidin-4-yl]-N-(tetrahydrofuran-3-yl)-3-trifluoromethylbenzenesulfonamide fumarate] | 1840 nM | –
CN[C@@H](CC(C)C)C(=O)N1CCC(N(C[C@@H]2CCCO2)S(=O)(=O)c2cccc(C(F)(F)F)c2)CC1 [(2S) N-[1-(4-methyl-2-methylaminopentanoyl)piperidin-4-yl]-N-(tetrahydrofuran-2-yl)methyl-3-trifluoromethylbenzenesulfonamide] | 5060 nM | –
CN[C@@H](CC(C)C)C(=O)N1CCC(N(C2CC2)S(=O)(=O)c2cccc(Cl)c2)CC1 [(2S) N-cyclopropyl-N-[1-(4-methyl-2-methylaminopentanoyl)-piperidin-4-yl]-3-chlorobenzenesulfonamide] | 2630 nM | –
CN[C@@H](CC(C)C)C(=O)N1CCC(N(C2CC2)S(=O)(=O)c2cccc(C#N)c2)CC1 [(2S) N-cyclopropyl-N-[1-(4-methyl-2-methylaminopentanoyl)-piperidin-4-yl]-3-cyanobenzenesulfonamide] | 4270 nM | –
CN[C@@H](CC(C)C)C(=O)N1CCC(N(C2CC2)S(=O)(=O)c2cccc(F)c2)CC1 [(2S) N-cyclopropyl-N-[1-(4-methyl-2-methylaminopentanoyl)-piperidin-4-yl]-3-fluorobenzenesulfonamide] | 4660 nM | –
CN[C@@H](CC(C)C)C(=O)N1CCC(N(C2CC2)S(=O)(=O)c2cccc(OC)c2)CC1 [(2S) N-cyclopropyl-N-[1-(4-methyl-2-methylaminopentanoyl)-piperidin-4-yl]-3-methoxybenzenesulfonamide] | 7290 nM | –
CN[C@@H](CC(C)C)C(=O)N1CCC(N(C2CC2)S(=O)(=O)c2cccc(C)c2)CC1 [(2S) N-cyclopropyl-N-[1-(4-methyl-2-methylaminopentanoyl)-piperidin-4-yl]-3-methylbenzenesulfonamide] | 8290 nM | –
CN[C@@H](CC(C)C)C(=O)N1CCC(N(C2CC2)S(=O)(=O)c2cccc([N+](=O)[O-])c2)CC1 [(2S) N-cyclopropyl-N-[1-(4-methyl-2-methylaminopentanoyl)-piperidin-4-yl]-3-nitrobenzenesulfonamide] | 3620 nM | –
CN[C@@H](CC(C)C)C(=O)N1CCC(N(CCC(C)C)S(=O)(=O)c2cccc(C(F)(F)F)c2)CC1 [(2S) N-i-pentyl-N-[1-(4-methyl-2-methylaminopentanoyl)piperidin-4-yl]-3-trifluoromethylbenzenesulfonamide] | 1260 nM | –
CCCC=CC(=O)N1CCC(N(C2CC2)S(=O)(=O)c2cccc(C(F)(F)F)c2)CC1 [N-Cyclopropyl-N-(1-hex-2-enoyl-piperidin-4-yl)-3-trifluoromethylbenzenesulfonamide] | 1210 nM | –
O=C(C1Cc2ccccc2CN1)N1CCC(N(C2CC2)S(=O)(=O)c2cccc(C(F)(F)F)c2)CC1 (stereo not drawn) [N-Cyclopropyl-N-[1-(1,2,3,4-tetrahydroisoquinolin-3-carbonyl)piperidin-4-yl]-3-trifluoromethylbenzenesulfonamide] | 1580 nM | –
CN1CCCC1C(=O)N1CCC(N(C2CC2)S(=O)(=O)c2cccc(C(F)(F)F)c2)CC1 (stereo not drawn) [N-Cyclopropyl-N-[1-(N-methylpyrrolidin-2-carbonyl)piperidin-4-yl]-3-trifluoromethylbenzenesulfonamide] | 1380 nM | –
NC1(C(=O)N2CCC(N(C3CC3)S(=O)(=O)c3cccc(C(F)(F)F)c3)CC2)CCCC1 [N-[1-(1-Aminocyclopentan-1-carbonyl)piperidin-4-yl]-N-cyclopropyl-3-trifluoromethylbenzenesulfonamide] | 1080 nM | –
O=C(CCC(=O)N1CCC(N(C2CC2)S(=O)(=O)c2ccccc2)CC1)c1ccc(F)cc1 [N-cyclopropyl-N-{1-[4-(4-fluorophenyl)-4-oxobutanoyl]piperidin-4-yl}benzenesulfonamide] | 6210 nM | –
